These results are taken from PMC10185560, “Turn air-captured CO2 with methanol into amino acid and pyruvate in an ATP/NAD(P)H-free chemoenzymatic system” (Nature Communications, 2023).

Each structure is given as a SMILES string.

In one assay the target is T1, MsLSD (Mycolicibacterium smegmatis, UniProt A0QY48).
T1 construct: gene MSMEG_3532; described as PLP-dependent
T1 sequence (A0QY48 1-316): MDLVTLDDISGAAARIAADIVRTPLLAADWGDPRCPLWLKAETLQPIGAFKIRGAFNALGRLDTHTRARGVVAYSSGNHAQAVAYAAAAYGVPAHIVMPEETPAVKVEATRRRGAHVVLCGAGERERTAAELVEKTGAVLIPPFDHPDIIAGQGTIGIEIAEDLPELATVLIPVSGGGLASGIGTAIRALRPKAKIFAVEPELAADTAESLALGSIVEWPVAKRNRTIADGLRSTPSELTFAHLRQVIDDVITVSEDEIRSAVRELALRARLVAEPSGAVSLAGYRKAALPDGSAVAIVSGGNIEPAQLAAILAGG
Nature of the assay: residual serine dehydratase activity. As to conditions: 75% loss printed at 20 mM, reactive inactivator. The format is biochemical.

For a further assay, the target named is T2, LpLSD (Legionella pneumophila, UniProt Q5ZXE1).
T2 construct: gene sda-2
T2 sequence (Q5ZXE1 1-458): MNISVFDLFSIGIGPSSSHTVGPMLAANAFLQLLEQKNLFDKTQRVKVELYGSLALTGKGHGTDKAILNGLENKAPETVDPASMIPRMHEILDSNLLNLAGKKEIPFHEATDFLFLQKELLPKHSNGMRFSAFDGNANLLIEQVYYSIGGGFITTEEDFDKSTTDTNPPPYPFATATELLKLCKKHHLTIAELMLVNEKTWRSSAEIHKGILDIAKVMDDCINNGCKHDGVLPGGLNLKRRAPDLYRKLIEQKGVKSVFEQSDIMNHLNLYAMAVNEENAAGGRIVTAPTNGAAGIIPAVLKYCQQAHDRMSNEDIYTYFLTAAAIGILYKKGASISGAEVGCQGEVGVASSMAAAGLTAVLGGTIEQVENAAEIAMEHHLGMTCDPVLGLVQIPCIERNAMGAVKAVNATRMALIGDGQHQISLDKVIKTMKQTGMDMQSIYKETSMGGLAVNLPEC
The following applies: freshly made enzyme.

The next assay concerns the target T3, L protein (Escherichia coli, UniProt P0A9P0).
T3 construct: gene lpdA
T3 sequence (P0A9P0 2-474): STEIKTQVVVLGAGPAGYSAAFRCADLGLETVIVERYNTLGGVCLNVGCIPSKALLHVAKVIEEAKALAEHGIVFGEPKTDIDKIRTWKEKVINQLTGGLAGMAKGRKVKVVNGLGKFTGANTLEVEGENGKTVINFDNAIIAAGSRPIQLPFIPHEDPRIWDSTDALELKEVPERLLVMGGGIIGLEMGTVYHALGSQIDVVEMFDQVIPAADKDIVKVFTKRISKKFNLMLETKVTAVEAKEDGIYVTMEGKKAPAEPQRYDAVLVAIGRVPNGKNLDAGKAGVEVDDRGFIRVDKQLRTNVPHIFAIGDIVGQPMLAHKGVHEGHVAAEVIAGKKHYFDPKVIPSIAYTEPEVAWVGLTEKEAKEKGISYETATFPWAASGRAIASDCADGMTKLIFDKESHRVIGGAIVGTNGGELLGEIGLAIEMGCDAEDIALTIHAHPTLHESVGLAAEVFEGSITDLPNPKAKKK
Nature of the assay: NADH formation at […] nm. The format is biochemical.

As for `C=O` [formaldehyde], the “activity loss at 10 mM formaldehyde” value on MsLSD is ~ 50%. As to `N[C@@H](CO)C(=O)O` [serine], the “pyruvate formation by HPLC” value on LpLSD is “The fresh-made LpLSD enzyme showed similar activities”. On to `NC(=O)c1ccc[n+]([C@@H]2O[C@H](COP(=O)(O)OP(=O)(O)OC[C@H]3O[C@@H](n4cnc5c(N)ncnc54)[C@H](O)[C@@H]3O)[C@@H](O)[C@H]2O)c1` [NAD^+], for which, on L protein, the “NADH formation at 340 nm” value was “Hred was then re-oxidized by L-protein in the presence of NAD^+”.
